The results in this text go back to patent US12473291B2 (priority 2019, dated 2025).

Like-named read-outs stand apart in the source and are kept apart here.

One assay concerns KM mice. In words: animal or person. Format: in vivo. Conditions: for 2ED50 duration / 2ED50 recovery time / Quality of recovery: KM mice; for 2ED50 duration / 2ED50 recovery time: single tail vein injection at 2×ED50; for 2ED50 duration: time from disappearance to recovery of righting reflex; for 2ED50 recovery time: time from recovery of righting reflex to free crawling; for Quality of recovery: tail vein injection; for ED50: KM mice (male, 18-22 g), injection via the tail vein, disappearance of righting reflex.

The next assay deals with SD rats. In words: animal or person. Conditions: for ED50: SD rats (male, 220-300 g), injection via the tail vein, disappearance of righting reflex; for 2ED50 duration / 2ED50 recovery time / Quality of recovery: SD rats; for 2ED50 duration / 2ED50 recovery time: single tail vein injection at 2×ED50; for 2ED50 duration: time from disappearance to recovery of righting reflex; for 2ED50 recovery time: time from recovery of righting reflex to free crawling; for Quality of recovery: tail vein injection. Format: in vivo.

[1] abbreviates: Rattus norvegicus, read-out: ED50.

Take `CCOC(=O)COC(=O)CC[C@@H]1N=C(c2ccccn2)c2cc(Br)c(Br)cc2-n2c(C)cnc21` [Example 21]: in the assay on KM mice, the 2ED50 duration stood at 3.08 min, the 2ED50 recovery time is reported as 2.01 min and the Quality of recovery result is given as “++ (“++” means 1-3 min)”. In the assay with KM mice (Mus musculus, read-out: ED50), the ED50 is 25.9 mg/kg. Besides, the ED50 in the assay on SD rats (setting [1]) stood at 4.2 mg/kg. Also, in the assay on SD rats, the “2ED50 duration” value is reported as 3.08 min, the 2ED50 recovery time is given as 2.27 min and the Quality of recovery entry is listed as “++ (“++” means 1-3 min)”.

On to `COC(=O)C(CC(F)C(C)(C)OC(=O)CC[C@@H]1N=C(c2ccccn2)c2cc(Br)c(OC)cc2-n2c(C)cnc21)OC` (stereo partly drawn) [Example 67, Methyl 5-((3-((4S)-8-bromo-9-methoxy-1-methyl-6-(pyridine-2-yl)-4H-benzo [f]imidazo[1,2-a][1,4]diazapin-4-yl)propionyl)oxy)-4-fluoro-2-methoxy-5-hexanoate adipate], for which the 2ED50 duration in the assay on KM mice came out at 2.58 min; with SD rats, 3.18 min. The 2ED50 recovery time in the assay with KM mice stood at 2.38 min; in the assay on SD rats, 3.01 min. Further, the Quality of recovery entry in the assay on KM mice was “++ (“++” means 1-3 min)”; with SD rats, “+++ (“+++” means 3-5 min)”. The ED50 with KM mice (Mus musculus, read-out: ED50) came out at 31.7 mg/kg; with SD rats (setting [1]) it was 6.9 mg/kg.

On to `CCOC(=O)C1(OC(=O)CC[C@@H]2N=C(c3ccccn3)c3cc(F)c(C)cc3-n3c(C)cnc32)CC1` [Example 26], for which, in the assay with KM mice, the 2ED50 duration is 4.38 min, the 2ED50 recovery time is listed as 2.08 min and the Quality of recovery result was “+++ (“+++” means 3-5 min)”. The ED50 in the assay with KM mice (Mus musculus, read-out: ED50) turned out to be 23.7 mg/kg. Besides, in the assay with SD rats (setting [1]), the ED50 worked out at 3.7 mg/kg. Moreover, in the assay on SD rats, the “2ED50 duration” value is on record as 3.48 min, the 2ED50 recovery time came out at 2.04 min and the Quality of recovery entry is recorded as “++ (“++” means 1-3 min)”.

As for `Cc1cc2c(c(C)c1C)C(c1ccccn1)=N[C@@H](CCC(=O)OCC(=O)OC(C)C)c1ncc(C)n1-2` [Example 76, 2-Isopropoxy-2-oxoethyl-3-(((4S)-1,7,8,9-tetramethyl-6-(pyridine-2-yl)-4H-benzo[f]imidazo[1,2-a][1,4]diaza-4-ylpropionate phosphate], the results for the 2ED50 duration with KM mice and with SD rats were 3.28 min and 2.47 min, respectively. For the same compound, the figures for the 2ED50 recovery time in the assay on KM mice and with SD rats were 2.49 min and 2.23 min, respectively. Further, the Quality of recovery result with KM mice was “++++ (“++++” means 5-10 min)”; in the assay with SD rats, “+++ (“+++” means 3-5 min)”. Moreover, the ED50 with KM mice (Mus musculus, read-out: ED50) turned out to be 27.8 mg/kg; in the assay with SD rats (setting [1]), 6.3 mg/kg.

With `Cc1cnc2n1-c1cc(C(F)(F)F)c(Cl)cc1C(c1cccnc1)=N[C@H]2CCC(=O)OCOC(=O)OC(C)C` [Example 32], the 2ED50 duration in the assay on KM mice was 4.34 min; in the assay with SD rats it was 3.34 min. The 2ED50 recovery time with KM mice stood at 2.01 min; in the assay on SD rats it was 2.41 min. Moreover, the values for the Quality of recovery entry in the assay with KM mice and with SD rats were “++++ (“++++” means 5-10 min)” and “+++ (“+++” means 3-5 min)”, respectively. Moreover, the ED50 in the assay with KM mice (Mus musculus, read-out: ED50) came out at 31.1 mg/kg; in the assay on SD rats (setting [1]), 3.1 mg/kg.

With `CCOC(=O)OCOC(=O)CC[C@@H]1N=C(c2ccccn2)c2cc(Br)c(Br)cc2-n2c(C)cnc21` [Example 9], the results for the 2ED50 duration in the assay on KM mice and in the assay with SD rats were 5.48 min and 4.12 min, respectively. Also, the 2ED50 recovery time in the assay on KM mice is 2.07 min; with SD rats, 2.57 min. Besides, the Quality of recovery result with KM mice is “++++ (“++++” means 5-10 min)”; in the assay with SD rats, “+++ (“+++” means 3-5 min)”. In addition, the ED50 in the assay with KM mice (Mus musculus, read-out: ED50) came to 31.6 mg/kg; in the assay on SD rats (setting [1]) it was 5.6 mg/kg.

Take `CCOC(=O)C1(OC(=O)CC[C@@H]2N=C(c3ccccn3)c3cc(Br)c(Br)cc3-n3c(C)cnc32)CC1` [Example 19]: in the assay with KM mice, the 2ED50 duration was 6.07 min, the 2ED50 recovery time was 2.09 min and the Quality of recovery entry is recorded as “++++ (“++++” means 5-10 min)”. For the same compound, in the assay on KM mice (Mus musculus, read-out: ED50), the ED50 is 23.2 mg/kg. Besides, in the assay with SD rats (setting [1]), the ED50 was 5.6 mg/kg. In the assay with SD rats, the “2ED50 duration” value is 4.07 min, the 2ED50 recovery time is recorded as 2.12 min and the Quality of recovery entry is recorded as “+++ (“+++” means 3-5 min)”.

In the assay with KM mice, `COC(=O)OC(C)OC(=O)CC[C@@H]1N=C(c2ccccn2)c2cc(Br)ccc2-n2c(C)cnc21` (some centres unmarked) [Example 53] registered a 2ED50 duration of 3.61 min and a 2ED50 recovery time of 2.41 min. For the same compound, in the assay with KM mice (Mus musculus, read-out: ED50), the ED50 worked out at 25.7 mg/kg. Moreover, in the assay on KM mice (mice, tail vein, in words), the “duration and recovery time compared with remimazolam” value is given as “significantly shorter”; the “effective dose compared with remimazolam” value is “significantly lower”. Further, the ED50 in the assay on SD rats (setting [1]) was determined as 6 mg/kg. In addition, in the assay on SD rats, the “2ED50 duration” value is recorded as 3.18 min, the 2ED50 recovery time came to 2.47 min and the Quality of recovery entry is recorded as “++ (“++” means 1-3 min)”. In addition, in the assay with SD rats (rats, tail vein, in words), the “duration and recovery time compared with remimazolam” value was “significantly shorter”; the “effective dose compared with remimazolam” value is listed as “significantly lower”.

With `Cc1cnc2n1-c1cc(Br)c(Br)cc1C(c1ccccn1)=N[C@H]2CCC(=O)OCOC(=O)OC(C)C` [Example 10], the 2ED50 duration in the assay on KM mice stood at 5.12 min; in the assay with SD rats, 5.31 min. The 2ED50 recovery time with KM mice and in the assay on SD rats was 2.06 min in each case. Further, the figures for the Quality of recovery result with KM mice and in the assay with SD rats were “+++ (“+++” means 3-5 min)” and “++ (“++” means 1-3 min)”, respectively. Also, the ED50 in the assay on KM mice (Mus musculus, read-out: ED50) stood at 28.3 mg/kg; in the assay on SD rats (setting [1]), 5.8 mg/kg.

In the case of `COC(=O)C(OC(=O)CC[C@@H]1N=C(c2ccccn2)c2cc(Cl)cc(OC(F)(F)F)c2-n2c(C)cnc21)C1CCCCCCCCC1` (some centres unmarked) [Example 82], in the assay with KM mice, the 2ED50 duration was 3.54 min, the 2ED50 recovery time turned out to be 2.13 min and the Quality of recovery result is “+++ (“+++” means 3-5 min)”. Also, in the assay with KM mice (Mus musculus, read-out: ED50), the ED50 was 29.8 mg/kg. Besides, the ED50 with SD rats (setting [1]) turned out to be 5.8 mg/kg. Also, in the assay on SD rats, the “2ED50 duration” value is on record as 2.15 min, the 2ED50 recovery time is recorded as 2.10 min and the Quality of recovery entry is recorded as “++ (“++” means 1-3 min)”.

In the case of `COC(=O)COC(=O)CC[C@@H]1N=C(c2ccccn2)c2cc(Br)ccc2-n2c(C)cnc21` [Example 56, 2-Methoxy-2-oxoethyl-3-((4S)-8-bromo-1-methyl-6-(pyridine-2-yl)-4H-benzo[f]imidazo[1,2-a][1,4]diaza-4-ylpropionate], the 2ED50 duration was found to be 4.08 min in the assay on KM mice and 1.05 min in the assay on SD rats. Besides, the values for the 2ED50 recovery time in the assay on KM mice and with SD rats were 1.20 min and 1.12 min, respectively. Further, the Quality of recovery entry in the assay on KM mice and with SD rats was “++ (“++” means 1-3 min)” in each case. In addition, the ED50 came out at 27.2 mg/kg in the assay on KM mice (Mus musculus, read-out: ED50) and 6.8 mg/kg in the assay on SD rats (setting [1]).

Consider `Cc1cnc2n1-c1ccc(Br)cc1C(c1ccccn1)=N[C@H]2CCC(=O)OCOC(=O)OC(C)C` [Example 48], for which, in the assay on KM mice, the 2ED50 duration is reported as 8.56 min, the 2ED50 recovery time came out at 2.48 min and the Quality of recovery result is “++++ (“++++” means 5-10 min)”. In the assay on KM mice (Mus musculus, read-out: ED50), the ED50 worked out at 27 mg/kg. Besides, in the assay on SD rats (setting [1]), the ED50 was found to be 5.3 mg/kg. In addition, in the assay with SD rats, the “2ED50 duration” value is recorded as 4.16 min, the 2ED50 recovery time came out at 2.42 min and the Quality of recovery result was “+++ (“+++” means 3-5 min)”.

Take `COC(=O)C1(OC(=O)CC[C@@H]2N=C(c3ccccn3)c3cc(Br)c(Br)cc3-n3c(C)cnc32)CC1` [Example 18]: the 2ED50 duration with KM mice turned out to be 5.09 min; in the assay with SD rats it was 4.49 min. The 2ED50 recovery time in the assay with KM mice amounted to 2.49 min; in the assay on SD rats, 2.58 min. The Quality of recovery result in the assay on KM mice and with SD rats was “+++ (“+++” means 3-5 min)” throughout. The ED50 in the assay on KM mice (Mus musculus, read-out: ED50) worked out at 30.1 mg/kg; with SD rats (setting [1]), 4.8 mg/kg.

Take `COC(=O)C(C)(C)OC(=O)CC[C@@H]1N=C(c2ccccn2)c2cc(Cl)c(Cl)c(Cl)c2-n2c(C)cnc21` [Example 30]: in the assay with KM mice, the ED50 is reported as 30.2 mg/kg, the 2ED50 duration was determined as 4.04 min, the 2ED50 recovery time worked out at 1.59 min and the Quality of recovery result is “++ (“++” means 1-3 min)”. In the assay with SD rats, the ED50 worked out at 6.2 mg/kg, the “2ED50 duration” value turned out to be 3.01 min, the 2ED50 recovery time is 2.51 min and the Quality of recovery entry is “++ (“++” means 1-3 min)”.

As for `COC(=O)C1(OC(=O)CC[C@@H]2N=C(c3ccccn3)c3cc(Cl)c(C(F)(F)F)cc3-n3c(C)cnc32)CC1` [Example 40], in the assay with KM mice, the ED50 is 24.8 mg/kg, the 2ED50 duration was 4.26 min, the 2ED50 recovery time is given as 1.55 min and the Quality of recovery entry is reported as “++ (“++” means 1-3 min)”. In the assay on SD rats, the ED50 came to 6.8 mg/kg, the “2ED50 duration” value is reported as 4.06 min, the 2ED50 recovery time is reported as 2.01 min and the Quality of recovery result is on record as “++ (“++” means 1-3 min)”.

Take `CCOC(=O)C(C)OC(=O)CC[C@@H]1N=C(c2ccccn2)c2cc(C)c(OC)cc2-n2c(C)cnc21` (stereo partly drawn) [Example 81, 1-Ethoxy-1-oxopropane-2-yl3-((4S)-9-methoxy-1,8-dimethyl-6-(pyridine-2-yl)-4H-benzo[f]imidazo[1,2-a][1,4]diaza-4-ylpropionate malonate]: in the assay with KM mice, the 2ED50 duration is reported as 3.49 min, the 2ED50 recovery time came out at 2.43 min and the Quality of recovery result was “+++ (“+++” means 3-5 min)”. Further, the ED50 in the assay with KM mice (Mus musculus, read-out: ED50) turned out to be 31.1 mg/kg. In addition, the ED50 in the assay with SD rats (setting [1]) amounted to 6.2 mg/kg. Moreover, in the assay with SD rats, the “2ED50 duration” value is 2.43 min, the 2ED50 recovery time was 2.09 min and the Quality of recovery entry is “+++ (“+++” means 3-5 min)”.

By ED50 is commonly meant the midpoint of the dose-response relation.
